Laboratory results reported in patent publication US12540120B2, “Herbicidal compounds” (SYNGENTA CROP PROTECTION AG, priority 2019, dated 2026).

How the values were obtained:
Format in all cases: in vivo
[1] = tested on: Abutilon theophrasti (ABUTH); test: B3 Post-Emergence Efficacy—Test 3; details: post-emergence application, 250 g/ha, evaluated after 13 days (Test 3)
Protocol: (§1) B3 Post-Emergence Efficacy—Test 3 Seeds of a variety of test species are sown in standard soil in pots:—Amaranthus retoflexus (AMARE), Setaria faberi (SETFA), Echinochloa crus-galli (ECHCG), Ipomoea hederacea (IPOHE), Zea Mays (ZEAMX), Abutilon theophrasti (ABUTH). After 8 days cultivation (post-emergence) under controlled conditions in a glasshouse (at 24/16° C., day/night; 14 hours light; 65% humidity), the plants are sprayed with an aqueous spray solution derived from the formulation of the technical active ingredient in acetone/water (50:50) solution containing 0.5% Tween 20 (polyoxyethylene sorbitan monolaurate, CAS RN 9005-64-5). Compounds are applied at 250 g/ha. The test plants are then grown in a glasshouse under controlled conditions in a glasshouse (at 24/16° C., day/night; 14 hours light; 65% humidity) and watered twice daily. After 13 days, the test is evaluated for the percentage damage caused to the plant. The biological activities are assessed on a five point scale (5=80-100%; 4=60-79%; 3=40-59%; 2=20-39%; 1=0-19%). A blank value in the table is indicative that the compound was not tested on that species.

[2] = tested on: Amaranthus retoflexus (AMARE); test: B3 Post-Emergence Efficacy—Test 3; details: post-emergence application, 250 g/ha, evaluated after 13 days (Test 3)
Protocol: as §1

[3] = tested on: Echinochloa crus-galli (ECHCG); test: B3 Post-Emergence Efficacy—Test 3; details: post-emergence application, 250 g/ha, evaluated after 13 days (Test 3)
Protocol: as §1

[4] = tested on: Ipomoea hederacea (IPOHE); test: B3 Post-Emergence Efficacy—Test 3; details: post-emergence application, 250 g/ha, evaluated after 13 days (Test 3)
Protocol: as §1

[5] = tested on: Setaria faberi (SETFA); test: B3 Post-Emergence Efficacy—Test 3; details: post-emergence application, 250 g/ha, evaluated after 13 days (Test 3)
Protocol: as §1

[6] = tested on: Zea Mays (ZEAMX); test: B3 Post-Emergence Efficacy—Test 3; details: post-emergence application, 250 g/ha, evaluated after 13 days (Test 3)
Protocol: as §1

[7] = tested on: Abutilon theophrasti (ABUTH); test: B6 Pre-Emergence Efficacy—Test 3; details: pre-emergence application, 250 g/ha, evaluated after 13 days (Test 3)
Protocol: (§2) B6 Pre-Emergence Efficacy—Test 3 Seeds of a variety of test species were sown in standard soil in pots: Amaranthus retoflexus (AMARE), Setaria faberi (SETFA), Echinochloa crus-galli (ECHCG), Ipomoea hederacea (IPOHE), Zea Mays (ZEAMX), Abutilon theophrasti (ABUTH). After cultivation for one day (pre-emergence) under controlled conditions in a glasshouse (at 24/16° C., day/night; 14 hours light; 65% humidity), the plants were sprayed with an aqueous spray solution derived from the formulation of the technical active ingredient in acetone/water (50:50) solution containing 0.5% Tween 20 (polyoxyethelyene sorbitan monolaurate, CAS RN 9005-64-5). Compounds are applied at 250 g/ha. The test plants were then grown in a glasshouse under controlled conditions (at 24/16° C., day/night; 14 hours light; 65% humidity) and watered twice daily. After 13 days, the test is evaluated for the percentage damage caused to the plant. The biological activities are assessed on a five point scale (5=80-100%; 4=60-79%; 3=40-59%; 2=20-39%; 1=0-19%). A blank value in the table is indicative that the compound was not tested on that species.

[8] = tested on: Amaranthus retoflexus (AMARE); test: B6 Pre-Emergence Efficacy—Test 3; details: pre-emergence application, 250 g/ha, evaluated after 13 days (Test 3)
Protocol: as §2

[9] = tested on: Echinochloa crus-galli (ECHCG); test: B6 Pre-Emergence Efficacy—Test 3; details: pre-emergence application, 250 g/ha, evaluated after 13 days (Test 3)
Protocol: as §2

[10] = tested on: Ipomoea hederacea (IPOHE); test: B6 Pre-Emergence Efficacy—Test 3; details: pre-emergence application, 250 g/ha, evaluated after 13 days (Test 3)
Protocol: as §2

[11] = tested on: Setaria faberi (SETFA); test: B6 Pre-Emergence Efficacy—Test 3; details: pre-emergence application, 250 g/ha, evaluated after 13 days (Test 3)
Protocol: as §2

[12] = tested on: Zea Mays (ZEAMX); test: B6 Pre-Emergence Efficacy—Test 3; details: pre-emergence application, 250 g/ha, evaluated after 13 days (Test 3)
Protocol: as §2

Row | SMILES | percentage damage caused to the plant, five point scale, ABUTH [1] | percentage damage caused to the plant, five point scale, AMARE [2] | percentage damage caused to the plant, five point scale, ECHCG [3] | percentage damage caused to the plant, five point scale, IPOHE [4] | percentage damage caused to the plant, five point scale, SETFA [5] | percentage damage caused to the plant, five point scale, ZEAMX [6] | percentage damage caused to the plant, five point scale, ABUTH [7] | percentage damage caused to the plant, five point scale, AMARE [8] | percentage damage caused to the plant, five point scale, ECHCG [9] | percentage damage caused to the plant, five point scale, IPOHE [10] | percentage damage caused to the plant, five point scale, SETFA [11] | percentage damage caused to the plant, five point scale, ZEAMX [12]
1 | Cc1nn(C)c(=O)c(-c2c(F)ccc(Cl)c2CCc2cnn(C3CC3)c2)c1O [Compound A-1.387] | 4 (4=60-79%) | 4 (4=60-79%) | 4 (4=60-79%) | 4 (4=60-79%) | 4 (4=60-79%) | 4 (4=60-79%) | 4 (4=60-79%) | 5 (5=80-100%) | 5 (5=80-100%) | 5 (5=80-100%) | 5 (5=80-100%) | 4 (4=60-79%)
2 | Cc1nn(C)c(=O)c(-c2c(F)ccc(C3CC3)c2CCc2ccnc(F)c2)c1O [Compound C-1.013, 4-[3-cyclopropyl-6-fluoro-2-[2-(2-fluoro-4-pyridyl)ethyl]phenyl]-5-hydroxy-2,6-dimethyl-pyridazin-3-one] | 4 (4=60-79%) | 5 (5=80-100%) | 5 (5=80-100%) | 4 (4=60-79%) | 4 (4=60-79%) | 4 (4=60-79%) | 5 (5=80-100%) | 5 (5=80-100%) | 5 (5=80-100%) | 5 (5=80-100%) | 5 (5=80-100%) | 4 (4=60-79%)
